Measured values published in PubChem BioAssay (NCI).
Values joined by “and” are separate entries in the source; they are usually repeats but may differ in a detail not shown here. Identical values can stand only once.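 Test compounds were applied to cells in 96-well plates for 48 hours at 5 doses. GI50 is the concentration that inhibits growth by half. Definition used: TGI = concentration required for complete inhibition of growth.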

Tests used:
Test in all cases: NCI tumour cell line growth inhibition, 48 h
DMS 114 small cell lung = tested on: DMS 114 small cell lung
DMS 273 small cell lung = tested on: DMS 273 small cell lung
HOP-18 NSCLC = tested on: HOP-18 NSCLC
KM20L2 colon = tested on: KM20L2 colon
M19-MEL melanoma = tested on: M19-MEL melanoma
RXF-631 renal = tested on: RXF-631 renal
SNB-78 CNS = tested on: SNB-78 CNS
XF 498 CNS = tested on: XF 498 CNS
MDA-N = tested on: MDA-N
P388 leukemia = tested on: P388 leukemia
SN12K1 renal = tested on: SN12K1 renal

SMILES	TGI (DMS 114 small cell lung)	TGI (DMS 273 small cell lung) [µM]	TGI (HOP-18 NSCLC)	TGI (KM20L2 colon) [µM]	TGI (M19-MEL melanoma)	TGI (RXF-631 renal) [µM]	TGI (SNB-78 CNS) [µM]	TGI (XF 498 CNS)	TGI (MDA-N) [µM]	other results
C/C(CC(=O)CCCC(=O)Nc1ccc(Cl)cc1Cl)=N/NC(=O)CC#N	> 100 µM	> 100	> 100 µM	> 100	> 100 µM	> 100	> 100	> 100 µM	–	–
COc1ccc(NC(=O)C(=O)C(CC2C(=O)NC(=S)NC2=O)C(=O)c2ccc3ccccc3c2)c([N+](=O)[O-])c1 (centres undefined)	–	–	–	–	–	–	–	–	> 100	–
CCOC(=O)C1Cc2c(ccc(OC)c2OC)C(=O)C1N (centres undefined)	> 100 µM	> 100	> 100 µM	> 100	> 100 µM	> 100	> 100	> 100 µM	–	–
CCOC(=O)C12CCCC1(O)N(NC(=O)c1cccc(Cl)c1)C(C)=C2C(=O)OC (centres undefined)	> 100 µM	> 100	–	> 100	> 100 µM	> 100	–	> 100 µM	–	–
C[C@]12CCC[C@H](OC=O)C1(O)C[C@H](C(=O)O)CC2 (some centres undefined)	> 100 µM	> 100	> 100 µM	35.2	> 100 µM	> 100	> 100	> 100 µM	–	–
C=C(C)C1CC=C(C(=O)O)CC1 (centres undefined)	> 5000 µM	> 5000	–	> 5000	2970 µM	1620	–	–	–	–
COC1=CC(=O)c2ccc(C(C)C)cc2C1(C)C1=NC(C)(C)CO1 (centres undefined)	> 100 µM	> 100	> 100 µM	> 100	> 100 µM	–	–	> 100 µM	–	–
C[C@H]1CCC/C=C/[C@@H]2C[C@H](O)C[C@H]2[C@H](O)[C@H](S(=O)c2ccc(O)cc2)CC(=O)O1 (some centres undefined)	–	–	–	–	–	–	–	–	–	GI50 (MDA-N): 0.0409 µM
O=C(O)/C(Cl)=C(\Cl)Nc1cccc(C(F)(F)F)c1	> 100 µM	> 100	> 100 µM	> 100	> 100 µM	–	> 100	> 100 µM	–	–
O=c1[nH]cnc2c(C3OC(CO)C(O)C3O)[nH]nc12 (centres undefined)	–	–	–	–	–	–	–	–	> 100	–
N=c1ccn2c(n1)OC1C(OP(=O)(O)O)C(CO)OC12 (centres undefined)	–	–	–	–	–	–	–	–	> 100	–
CC(=O)[O-].CC(=O)[O-].[Mn+2].c1ccc(/C(=N\Nc2ccccn2)c2ccccn2)cc1	0.0212 µM	–	14.3 µM	15.8	14.3 µM	–	–	–	22.5	–
Cc1cc(N(CCC#N)CCC#N)ccc1/C=C1/CN(N2C(=O)/C(=C/c3ccc(N(CCC#N)CCC#N)cc3C)N=C2c2ccccc2)C(c2ccccc2)=N1	> 100 µM	> 100	> 100 µM	> 100	> 100 µM	–	> 100	> 100 µM	–	–
CCCCCCCCCCCCCCCCC1=CC(=O)C=C(OC)C1=O	–	–	–	–	–	–	–	–	> 100	–
CN(C)CC/C=C1\c2ccccc2Sc2ccc(Cl)cc21	–	–	–	–	–	–	–	–	26.1	–
CC(=O)[CH-]C(=O)c1ccccc1.CC(=O)[CH-]C(=O)c1ccccc1.O=C([O-])C[O-].O=C([O-])C[O-].[Ti+4]	–	–	–	> 100	> 100 µM	–	–	–	–	GI50 (KM20L2 colon): 43.8 µM
O=C(O)C1C2C=CC(O2)C1C(=O)Nc1ccccc1 (centres undefined)	–	–	–	–	–	–	–	–	> 100	–
Cc1cc(Cl)ccc1Nc1sc(C(=O)c2cc3cc(Cl)ccc3o2)c(N)c1C#N	–	–	–	–	–	–	–	–	> 100	–
CN1C(=O)n2c(nc3ccccc32)C(N=[N+]=[N-])(N=[N+]=[N-])C1=O (centres undefined)	> 100 µM	> 100	> 100 µM	> 100	> 100 µM	> 100	> 100	> 100 µM	–	–
N=c1nc(N)c2cc3c(N)nc(=N)c3cc12	23.8 µM	> 100	41.5 µM	> 100	5.45 µM	53.5	48.5	–	4.71	–
CC(C#N)c1cn(S(=O)(=O)c2ccccc2)c2ccccc12 (centres undefined)	> 100 µM	> 100	–	> 100	> 100 µM	–	–	> 100 µM	–	–
Nn1c(CCCl)nc2c(Br)cc(Br)cc2c1=O	50.5 µM	> 100	> 100 µM	65.4	> 82 µM	–	> 100	56.1 µM	–	–
CCC[CH2][Sn]1([CH2]CCC)[O]C(c2ccccn2)S(=O)(=O)[O]1 (centres undefined)	–	15.5	–	20.2	14.4 µM	2.64	5.86	3.55 µM	–	GI50 (DMS 273 small cell lung): 3.29 µM; GI50 (KM20L2 colon): 6.65 µM; GI50 (M19-MEL melanoma): 4.1 µM; GI50 (RXF-631 renal): 1.3 µM; GI50 (SNB-78 CNS): 1.6 µM; GI50 (XF 498 CNS): 2.08 µM

SMILES	TGI (DMS 114 small cell lung)	TGI (DMS 273 small cell lung) [µM]	TGI (HOP-18 NSCLC)	TGI (KM20L2 colon) [µM]	TGI (M19-MEL melanoma)	TGI (RXF-631 renal) [µM]	TGI (SNB-78 CNS) [µM]	TGI (XF 498 CNS)	TGI (MDA-N) [µM]	other results
CCN1C(C)=NC2C(=O)c3ccccc3C(=O)C21 (centres undefined)	> 100 µM	> 100	–	68.2	> 100 µM	> 100	–	> 100 µM	–	–
COc1ccc2cc(C(=O)c3ccccc3C(=O)O)ccc2c1	> 100 µM	> 100	> 100 µM	> 100	> 100 µM	–	–	–	–	–
Oc1c(Br)cc(Br)cc1CN(Cc1cc(Br)cc(Br)c1O)C1CCCCC1	–	–	–	–	–	–	–	–	> 100	–
CC1(C)CC23C(=O)N(c4ccccc4)C(=Nc4ccccc4)NC2=CC(C#N)=C(C#N)C3O1 (centres undefined)	> 100 µM	–	–	> 100	> 100 µM	> 100	> 100	> 100 µM	–	–
C=C1C(=O)O[C@@H]2[C@H]1CC[C@H](C)[C@]1(O)CCC(=O)[C@@]21C	–	–	–	–	–	–	–	–	> 10	–
O=C1c2ccccc2C(=O)N1/N=C\c1ccc(Br)cc1	> 100 µM	> 100	> 10 µM	> 100	> 100 µM	> 100	> 100	> 100 µM	–	GI50 (DMS 114 small cell lung): > 100 µM; GI50 (DMS 273 small cell lung): > 100 µM; GI50 (KM20L2 colon): > 100 µM; GI50 (M19-MEL melanoma): > 100 µM; GI50 (RXF-631 renal): > 100 µM; GI50 (SNB-78 CNS): > 100 µM; GI50 (XF 498 CNS): > 100 µM
CC1=CC(=O)C(C)(C2=NC(C)(C)CO2)c2ccccc21 (centres undefined)	> 100 µM	–	> 100 µM	> 100	> 100 µM	> 100	–	–	–	–
CCCC(OCC)(OCC)OCC	> 100 µM	> 100	> 100 µM	> 100	> 100 µM	> 100	> 100	> 100 µM	–	–
CC(=O)CC(=O)N(CCN(C(=O)CC(C)=O)c1ccccc1)c1ccccc1	> 100 µM	–	> 100 µM	> 100	> 100 µM	–	> 100	> 100 µM	–	–
COc1cccc(/C=C(/C(=O)O)c2cc(OC)c(OC)c(OC)c2)c1	> 100 µM	> 100	> 100 µM	> 100	> 100 µM	> 100	> 100	> 100 µM	–	–
CC1(C)CCC(=O)c2c(O)ccc(O)c21	–	> 100	–	> 100	> 100 µM	–	> 100	–	–	–
CSc1nc(NC2OCC(OC(C)=O)C(OC(C)=O)C2OC(C)=O)c(N=CC=Nc2c(NC3OCC(OC(C)=O)C(OC(C)=O)C3OC(C)=O)nc(SC)n(C)c2=O)c(=O)n1C (centres undefined)	> 100 µM	> 100	> 100 µM	> 100	> 100 µM	–	–	–	–	–
O=C(O)C(=O)Cc1ccc2c(c1)OCO2	–	–	–	–	–	–	–	–	> 100	–
COc1ccc2[nH]c3c4c(c5cc(C(C)(C)C)ccc5c3c2c1)C(=O)N(c1ccccc1)C4=O	> 100 µM	–	> 100 µM	> 100	> 100 µM	–	> 100	–	–	–
Cc1cc(N(CCOS(C)(=O)=O)CCOS(C)(=O)=O)ccc1C=Nc1ccc(-c2csc(-c3ccccc3)n2)c(Cl)c1	–	–	–	–	–	–	–	–	23.1	–
Cc1cc(C)c(C(=O)O)c(N)c1O	> 100 µM	> 100	–	> 100	> 100 µM	–	–	–	–	–
COc1cc(C(=O)C/C(CCC(=O)Nc2ccccc2[N+](=O)[O-])=N\NC(=O)C(N)=O)ccc1O	> 100 µM	> 100	> 100 µM	> 100	> 100 µM	> 100	> 100	–	–	–
CC1(C)SC2C(C(=O)O)N=C(Cc3ccccc3)N2C1C(=O)O (centres undefined)	–	–	–	–	–	–	–	–	> 100	–
CN1CCC23c4c5ccc(O)c4OC2C(=NN=C2CCC4(O)C6Cc7ccc(O)c8c7C4(CCN6C)C2O8)CCC3(O)C1C5 (centres undefined)	> 100 µM	> 100	> 100 µM	> 100	> 100 µM	> 100	–	> 100 µM	–	–
NC1=NC(=O)N2CC12 (centres undefined)	> 100 µM	> 100	> 100 µM	> 100	–	–	–	> 100 µM	–	–
C=C(C)C(=O)NC(N)=NC#N	> 82.7 µM and 136 µM	270	> 57.4 µM and 240 µM	232	50.2 µM and 166 µM	–	398	> 96.6 µM and 303 µM	216	GI50 (DMS 273 small cell lung): 130 µM; GI50 (HOP-18 NSCLC): 115 µM; GI50 (M19-MEL melanoma): 42.8 µM; GI50 (MDA-N): 96.8 µM; TGI (P388 leukemia): 13.9 µM; TGI (SN12K1 renal): > 56.4 µM; GI50 (SNB-78 CNS): 167 µM; GI50 (XF 498 CNS): 126 µM
OCCN1CCN(CCO)Cc2ccccc2OCCOc2ccccc2C1	> 100 µM	> 100	–	> 100	> 100 µM	> 100	> 100	–	–	–
